From US8796340B2, “Pharmaceutical composition comprising propofol” (Novaliq GmbH, priority 2009, dated 2014)

Text: In further embodiments, the propofol concentration is from about 0.01 wt.-% to about 80 wt.-%, or from about 0.1 wt-% to about 50 wt.-%, or from about 1 wt.-% to about 20 wt.-%, or from about 2 wt.-% to about 20 wt.-%, respectively. In further embodiments, the strength is about 1 wt.-% or higher, such as about 2 wt.-%, 5 wt.-%, 10 wt.-%, 20 wt.-%, or 25 wt.-%.

## CC(C)c1cccc(C(C)C)c1O [propofol, 2,6-di(propan-2-yl)phenol]
SFA solutions
  propofol concentration possible in SFA solutions: up to 960 mg/mL
In most SFA's including F4H5, F6H6 and F6H8
  miscibility with SFA's: freely miscible
